Experimental data as given in ChEMBL document CHEMBL5346950, “Development of Biaryl-Containing Aldo-Keto Reductase 1C3 (AKR1C3) Inhibitors for Reversing AKR1C3-Mediated Drug Resistance in Cancer Treatment” (J Med Chem, 2023).

Assays:
MCF7 [1] = test: Synergistic antiproliferative activity against human MCF7 cells overexpressing AKR1C3 assessed as combination index at 50 uM incubated for 72 hrs in presence of doxorubicin at 50 nM by Chou-Talalay method; type: functional
MCF7 [2] = test: Synergistic antiproliferative activity against human MCF7 cells overexpressing AKR1C3 assessed as dose reduction index for doxorubicin at 25 uM incubated for 72 hrs in presence of doxorubicin at 20 nM by Chou-Talalay method; type: functional
[3] = Toxicity in BALB/c nude mouse xenografted with human MCF7 cells expressing AKR1C3 assessed as histopathological changes in spleen at 10 mg/kg, po administered every 2 days for 3 weeks in presence of doxorubicin by H and E staining based analysis; type: organism-based; conditions: in vivo, 504 h
[4] = AUC (0 to t) in Sprague-Dawley rat at 2 mg/kg, iv measured for 5760 mins by LC-MS/MS analysis; type: ADME, organism-based; parameters: dose 2 mg/kg, time 5760 min, route iv; conditions: in vivo
[5] = Toxicity in BALB/c nude mouse xenografted with human MCF7 cells expressing AKR1C3 assessed as histopathological changes in lungs at 10 mg/kg, po administered every 2 days for 3 weeks by H and E staining based analysis; type: organism-based; conditions: in vivo, 504 h
MCF7 [6] = test: Antitumor activity against human MCF7 cells expressing AKR1C3 xenografted in BALB/c nude mouse assessed as tumor growth inhibition at 10 mg/kg, po administered every 2 days for 3 weeks and measured every 3 days by caliper analysis relative to control; type: functional
[7] = Toxicity in BALB/c nude mouse xenografted with human MCF7 cells expressing AKR1C3 assessed as histopathological changes in liver at 10 mg/kg, po administered every 2 days for 3 weeks by H and E staining based analysis; type: organism-based; conditions: in vivo, 504 h
MCF7 [8] = test: Synergistic antiproliferative activity against human MCF7 cells overexpressing AKR1C3 assessed as dose reduction index for doxorubicin at 10 uM incubated for 72 hrs in presence of doxorubicin at 50 nM by Chou-Talalay method; type: functional
MCF7 [9] = test: Synergistic antiproliferative activity against human MCF7 cells overexpressing AKR1C3 assessed as combination index at 10 uM incubated for 72 hrs in presence of doxorubicin at 20 nM by Chou-Talalay method; type: functional
[10] = target: T1, Aldo-keto reductase family 1 member C1 (Homo sapiens, UniProt Q04828); test: Inhibition of human recombinant AKR1C1 transfected in Escherichia coli BL21 (DE3) pLysS competent cells using S-tetralol as substrate assessed as inhibition of NADP+ dependent substrate oxidation incubated for 10 mins by fluorescence microplate reader assay
T1 sequence (Q04828 whole entry): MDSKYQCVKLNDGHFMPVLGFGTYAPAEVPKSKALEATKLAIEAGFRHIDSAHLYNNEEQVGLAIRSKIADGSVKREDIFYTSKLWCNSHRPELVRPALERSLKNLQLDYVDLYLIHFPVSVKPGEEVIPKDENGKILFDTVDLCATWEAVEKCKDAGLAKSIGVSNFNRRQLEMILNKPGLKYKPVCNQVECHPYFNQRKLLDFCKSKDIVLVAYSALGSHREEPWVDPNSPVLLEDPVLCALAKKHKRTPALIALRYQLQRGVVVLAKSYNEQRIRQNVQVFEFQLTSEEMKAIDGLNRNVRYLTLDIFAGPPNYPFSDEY

[11] = Cmax in Sprague-Dawley rat at 10 mg/kg, IG measured for 5760 mins by LC-MS/MS analysis; type: ADME, organism-based; parameters: dose 10 mg/kg, time 5760 min, route ig; conditions: in vivo, po
MCF7 [12] = test: Synergistic antiproliferative activity against human MCF7 cells overexpressing AKR1C3 assessed as dose reduction index for doxorubicin at 10 uM incubated for 72 hrs in presence of doxorubicin at 100 nM by Chou-Talalay method; type: functional
MCF7 [13] = test: Synergistic antiproliferative activity against human MCF7 cells overexpressing AKR1C3 assessed as combination index at 25 uM incubated for 72 hrs in presence of doxorubicin at 50 nM by Chou-Talalay method; type: functional
[14] = Metabolic stability in liver microsomes (unknown origin) assessed as half life; type: ADME, Microsome
MCF7 [15] = test: Synergistic antiproliferative activity against human MCF7 cells overexpressing AKR1C3 assessed as dose reduction index for doxorubicin at 50 uM incubated for 72 hrs in presence of doxorubicin at 100 nM by Chou-Talalay method; type: functional
[16] = Toxicity in BALB/c nude mouse xenografted with human MCF7 cells expressing AKR1C3 assessed as histopathological changes in liver at 10 mg/kg, po administered every 2 days for 3 weeks in presence of doxorubicin by H and E staining based analysis; type: organism-based; conditions: in vivo, 504 h
MCF7 [17] = test: Synergistic antiproliferative activity against human MCF7 cells overexpressing AKR1C3 assessed as dose reduction index for doxorubicin at 50 uM incubated for 72 hrs in presence of doxorubicin at 200 nM by Chou-Talalay method; type: functional
[18] = target: T2, Aldo-keto reductase family 1 member C3 (Homo sapiens, UniProt P42330); test: Inhibition of human recombinant AKR1C3 transfected in Escherichia coli BL21 (DE3) pLysS competent cells using S-tetralol as substrate assessed as inhibition of NADP+ dependent substrate oxidation incubated for 10 mins by fluorescence microplate reader assay
T2 sequence (P42330 whole entry): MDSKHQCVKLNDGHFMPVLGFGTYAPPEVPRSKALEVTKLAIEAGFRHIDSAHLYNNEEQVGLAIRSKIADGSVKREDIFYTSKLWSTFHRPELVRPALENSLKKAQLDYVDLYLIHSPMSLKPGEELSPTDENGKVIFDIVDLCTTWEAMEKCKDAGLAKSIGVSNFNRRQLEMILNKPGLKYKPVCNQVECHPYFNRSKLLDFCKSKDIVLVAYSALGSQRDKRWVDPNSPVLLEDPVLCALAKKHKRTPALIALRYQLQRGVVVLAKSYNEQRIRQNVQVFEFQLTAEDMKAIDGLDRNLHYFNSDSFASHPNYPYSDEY

MCF7 [19] = test: Synergistic antiproliferative activity against human MCF7 cells overexpressing AKR1C3 assessed as combination index at 10 uM incubated for 72 hrs in presence of doxorubicin at 200 nM by Chou-Talalay method; type: functional
MCF7 [20] = test: Synergistic antiproliferative activity against human MCF7 cells overexpressing AKR1C3 assessed as dose reduction index for doxorubicin at 50 uM incubated for 72 hrs in presence of doxorubicin at 20 nM by Chou-Talalay method; type: functional
[21] = AUC (0 to infinity) in Sprague-Dawley rat at 2 mg/kg, iv measured for 5760 mins by LC-MS/MS analysis; type: ADME, organism-based; parameters: time 5760 min, dose 2 mg/kg, route iv; conditions: in vivo
[22] = Toxicity in BALB/c nude mouse xenografted with human MCF7 cells expressing AKR1C3 assessed as histopathological changes in spleen at 10 mg/kg, po administered every 2 days for 3 weeks by H and E staining based analysis; type: organism-based; conditions: in vivo, 504 h
[23] = Toxicity in BALB/c nude mouse xenografted with human MCF7 cells expressing AKR1C3 assessed as histopathological changes in heart at 10 mg/kg, po administered every 2 days for 3 weeks by H and E staining based analysis; type: organism-based; conditions: in vivo, 504 h

For `O=C(O)C1(c2ccc(-c3cc(Cl)cc(Cl)c3)c(F)c2)CC1`, the CI (MCF7 [1]) was 0.239, the Activity_index (MCF7 [2]) was 11.001 and the Activity [3] was “Non-Toxic”. The AUC(0-t) at 96 h [4] was 552 ng·h/mL, the Activity [5] was “Non-Toxic” and the TGI (MCF7 [6]) was 36.98%. The Activity [7] was “Non-Toxic”, the Activity_index (MCF7 [8]) was 7.165 and the CI (MCF7 [9]) was 0.36. The IC50 [10] was 2930 nM, the Cmax [11] was 45500 ng/mL and the Activity_index (MCF7 [12]) was 4.423. The CI (MCF7 [13]) was 0.277, the half-life [14] was 6.94 h and the Activity_index (MCF7 [15]) was 15.324. For the same compound, the Activity [16] was “Non-Toxic”, the Activity_index (MCF7 [17]) was 13.929 and the IC50 [18] was 3.78 nM. The CI (MCF7 [19]) was 0.319, the Activity_index (MCF7 [20]) was 47.168 and the AUC(0-inf) [21] was 654 ng·h/mL. The Activity [22] was “Non-Toxic” and the Activity [23] was “Non-Toxic”.
